Tests used:
[1] = system: CYP3A4; experiment: Phase 1 clinical DDI study, midazolam probe with or without relacorilant; format: in vivo, human
[2] = molecular target: T1, CYP2C8 (Homo sapiens, UniProt P10632); experiment: Phase 1 clinical DDI study, pioglitazone probe with or without relacorilant; format: in vivo
T1 sequence (P10632 1-490): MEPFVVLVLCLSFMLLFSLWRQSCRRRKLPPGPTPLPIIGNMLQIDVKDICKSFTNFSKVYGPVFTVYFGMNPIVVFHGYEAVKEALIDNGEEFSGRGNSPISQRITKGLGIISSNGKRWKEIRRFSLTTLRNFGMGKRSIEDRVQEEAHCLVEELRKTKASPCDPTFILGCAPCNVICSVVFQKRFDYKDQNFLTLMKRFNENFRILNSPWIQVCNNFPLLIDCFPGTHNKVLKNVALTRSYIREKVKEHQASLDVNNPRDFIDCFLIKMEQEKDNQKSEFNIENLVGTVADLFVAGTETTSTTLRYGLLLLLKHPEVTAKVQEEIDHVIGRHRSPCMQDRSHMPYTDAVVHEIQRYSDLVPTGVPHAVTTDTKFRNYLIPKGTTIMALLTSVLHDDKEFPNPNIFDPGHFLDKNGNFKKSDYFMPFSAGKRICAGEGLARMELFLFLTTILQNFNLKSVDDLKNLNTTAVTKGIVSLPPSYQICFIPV

[3] = molecular target: CYP3A4 (Homo sapiens, UniProt P08684); experiment: biochemical
[4] = system: CYP2B6 messenger RNA; experiment: In vitro CYP induction assay, messenger RNA in cryopreserved human hepatocytes; format: in vitro ADME; conditions: 3 donors
[5] = system: CYP1A2 messenger RNA; experiment: as above; format: in vitro ADME; conditions: 3 donors
[6] = system: progesterone receptor; conditions: background statement; cited from earlier work
[7] = molecular target: CYP2C9 (Homo sapiens, UniProt P11712); conditions: background statement; cited from earlier work
[8] = both, human, plasma, po, 2.5 mg, probe midazolam
[9] = both, human, plasma, po, 15 mg, probe pioglitazone
[10] = pioglitazone + relacorilant (day 15) compared to pioglitazone alone (day 2)
[11] = pioglitazone + relacorilant (day 15) vs pioglitazone alone (day 2)

Sequence of CYP2C9 (P11712 whole entry): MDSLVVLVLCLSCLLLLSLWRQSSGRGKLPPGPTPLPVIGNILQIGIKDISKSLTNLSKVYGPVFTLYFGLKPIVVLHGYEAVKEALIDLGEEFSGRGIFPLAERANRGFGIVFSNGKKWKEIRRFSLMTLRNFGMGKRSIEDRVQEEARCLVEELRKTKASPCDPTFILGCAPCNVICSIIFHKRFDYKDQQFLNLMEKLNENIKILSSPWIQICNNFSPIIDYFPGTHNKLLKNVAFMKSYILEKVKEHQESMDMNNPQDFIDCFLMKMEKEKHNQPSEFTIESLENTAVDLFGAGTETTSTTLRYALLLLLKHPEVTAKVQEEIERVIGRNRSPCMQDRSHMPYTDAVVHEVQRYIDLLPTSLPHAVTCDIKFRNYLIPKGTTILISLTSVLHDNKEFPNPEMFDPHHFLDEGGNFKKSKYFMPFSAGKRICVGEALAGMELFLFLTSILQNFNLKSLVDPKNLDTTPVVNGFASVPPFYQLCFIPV
Sequence of CYP3A4 (Homo sapiens, UniProt P08684) (P08684 whole entry): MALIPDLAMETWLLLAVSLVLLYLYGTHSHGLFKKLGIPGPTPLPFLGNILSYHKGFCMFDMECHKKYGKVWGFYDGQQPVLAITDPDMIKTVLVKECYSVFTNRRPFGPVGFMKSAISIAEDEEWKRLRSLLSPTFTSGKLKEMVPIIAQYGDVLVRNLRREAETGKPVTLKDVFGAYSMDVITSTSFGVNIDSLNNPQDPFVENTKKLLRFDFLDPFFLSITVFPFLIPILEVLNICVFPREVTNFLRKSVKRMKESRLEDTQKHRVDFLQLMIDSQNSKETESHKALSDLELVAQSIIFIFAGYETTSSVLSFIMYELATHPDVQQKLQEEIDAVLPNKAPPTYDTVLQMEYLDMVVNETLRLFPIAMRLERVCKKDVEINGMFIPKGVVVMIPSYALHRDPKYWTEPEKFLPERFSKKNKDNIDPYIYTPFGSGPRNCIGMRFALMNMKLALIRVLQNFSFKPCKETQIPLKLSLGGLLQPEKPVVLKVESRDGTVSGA

Compound: Cc1ncc2n1-c1ccc(Cl)cc1C(c1ccccc1F)=NC2 [Midazolam, midazolam]
- AUC(0-inf) ([1]; both, human, plasma, po, 2.5 mg): 36.4 ng·h/mL
- AUC(0-t) [1, 8]: 34.2 ng·h/mL
- Cmax [1, 8]: 12.7 ng/mL

Compound: CCc1ccc(CCOc2ccc(CC3SC(=O)NC3=O)cc2)nc1 (centres unmarked) [Pioglitazone, pioglitazone]
- AUC(0-inf) ([2]; both, human, plasma, po, 15 mg): 5650 ng·h/mL
- AUC(0-t) [2, 9]: 5530 ng·h/mL
- Cmax [2, 9]: 525 ng/mL
- Tmax [2, 9]: 2 h
- half-life [2, 9]: 10.4 h
- GLSM AUCinf lower with relacorilant than alone, pioglitazone [2, 10]: ~25%
- GLSM AUClast lower with relacorilant than alone, pioglitazone [2, 10]: ~25%
- GLSM Cmax lower with relacorilant than alone, pioglitazone [2, 10]: approximately 22%
- AUCinf GLSM Ratio (90%CI), pioglitazone [2, 11]: 0.748 (0.681‐0.822)
- AUClast GLSM Ratio (90%CI), pioglitazone [2, 11]: 0.747 (0.681‐0.820)
- Cmax GLSM Ratio (90%CI), pioglitazone [2, 11]: 0.778 (0.697‐0.870)

Compound: Cn1cc(S(=O)(=O)N2CCC3=Cc4c(cnn4-c4ccc(F)cc4)C[C@]3(C(=O)c3cc(C(F)(F)F)ccn3)C2)cn1 [Relacorilant, (R)‐(1‐(4‐fluorophenyl)‐6‐((1‐methyl‐1H‐pyrazol‐4‐yl)sulfonyl)‐4,4a,5,6,7,8‐hexahydro‐1H‐pyrazolo[3,4‐g]isoquinolin‐4a‐yl)(4‐(trifluoromethyl)pyridin‐2‐yl)methanone]
- CYP3A inhibition in vivo (in words) ([1]; healthy subjects, relacorilant 350 mg once daily, midazolam probe): strong CYP3A inhibitor
- IC50 [3]: 1.32 µM
- induction of CYP2B6 (in words) [4]: No induction of CYP2B6 was observed in any donor
- induction of CYP1A2 (in words) [5]: dose‐responsive induction of CYP1A2 was observed in all donors
- affinity for the progesterone receptor (in words) [6]: no affinity for the progesterone receptor

Compound: CC#C[C@]1(O)CC[C@H]2[C@@H]3CCC4=CC(=O)CCC4=C3[C@@H](c3ccc(N(C)C)cc3)C[C@@]21C [mifepristone]
- CYP2C9 inhibition in vivo (in words) [7]: inhibits both CYP2C8 and CYP2C9 in vivo

— publication PMC7818505 (Journal of Clinical Pharmacology, 2020)
